Data as given in ChEMBL document CHEMBL1133461, “ElogPoct: a tool for lipophilicity determination in drug discovery” (J Med Chem, 2000).

Legend:
[1] = Partition coefficient (logP) (HPLC); conditions: octanol/water
[2] = Partition coefficient (logP); conditions: octanol/water
[3] = HPLC capacity factor (k); type: ADME

Compound | logP [1] | Log k'w | logP [2] | Log K'w [3]
c1ccc2ccccc2c1 | 3.51 | 3.06 | – | –
Oc1cc(Cl)cc(Cl)c1 | 3.88 | 3.4 | 3.68 | –
CSc1ncnc2c1ncn2[C@@H]1O[C@H](CO)[C@@H](O)[C@H]1O | 0.34 | 0.19 | – | –
Oc1cccc(Cl)c1 | – | 2.49 | – | –
Brc1cnc2ccccc2c1 | 2.93 | 2.54 | – | –
CC(=O)Nc1ccc(O)cc1 [ACETAMINOPHEN] | 0.11 | – | 0.51 | -0.02
CC(=O)c1ccccc1 [ACETOPHENONE] | – | 1.31 | – | –
Oc1ncnc2[nH]ncc12 [ALLOPURINOL] | -0.85 | – | – | -0.89
Cc1cc(=O)n(-c2ccccc2)n1C [ANTIPYRINE] | – | – | – | 0.09
c1ccc(-c2ccc(C(c3ccccc3)n3ccnc3)cc2)cc1 (stereo unspecified) [BIFONAZOLE] | 4.95 | 4.37 | – | –
O=C1CN=C(c2ccccn2)c2cc(Br)ccc2N1 [BROMAZEPAM] | 1.38 | – | 1.65 | 1.13
Cn1c(=O)c2c(ncn2C)n(C)c1=O [CAFFEINE] | – | -0.31 | – | –
NC(=O)N1c2ccccc2C=Cc2ccccc21 [CARBAMAZEPINE] | 2.01 | – | 2.19 | 1.7
Clc1ccccc1C(c1ccccc1)(c1ccccc1)n1ccnc1 [CLOTRIMAZOLE] | – | 4.13 | – | –
C[C@@H]1C[C@H]2[C@@H]3CCC4=CC(=O)C=C[C@]4(C)[C@@]3(F)[C@@H](O)C[C@]2(C)[C@@]1(O)C(=O)CO [DEXAMETHASONE] | 2.37 | 2.03 | – | –
CC/C(=C(/CC)c1ccc(O)cc1)c1ccc(O)cc1 [DIETHYLSTILBESTROL] | 4.72 | 4.16 | – | –

Compound | logP [1] | Log k'w | logP [2] | Log K'w [3]
C[C@]12CC[C@@H]3c4ccc(O)cc4CC[C@H]3[C@@H]1CC[C@@H]2O [ESTRADIOL] | 3.82 | 3.34 | – | –
COC1=CC(=O)C[C@@H](C)[C@]12Oc1c(Cl)c(OC)cc(OC)c1C2=O [GRISEOFULVIN] | 2.57 | 2.21 | – | –
CC(=O)OCC(=O)[C@@]1(O)CC[C@H]2[C@@H]3CCC4=CC(=O)CC[C@]4(C)[C@H]3[C@@H](O)C[C@@]21C [HYDROCORTISONE ACETATE] | 2.26 | 1.93 | 2.19 | –
C[C@]12CCC(=O)C=C1CC[C@@H]1[C@@H]2[C@@H](O)C[C@@]2(C)[C@H]1CC[C@]2(O)C(=O)CO [HYDROCORTISONE] | – | 1.43 | – | –
O=C1Nc2ccc(Cl)cc2C(c2ccccc2Cl)=NC1O (stereo unspecified) [LORAZEPAM] | 2.74 | – | – | 2.36
CN1C(=O)C(O)N=C(c2ccccc2Cl)c2cc(Cl)ccc21 (stereo unspecified) [LORMETAZEPAM] | 2.78 | 2.4 | 2.72 | –
Cc1ncc([N+](=O)[O-])n1CCO [METRONIDAZOLE] | -0.22 | – | – | -0.32
O=[N+]([O-])c1ccc(/C=N/O)o1 [NIFUROXIME] | 1.36 | 1.11 | 1.28 | –
NC(=O)N/N=C/c1ccc([N+](=O)[O-])o1 [NITROFURAZONE] | 0.24 | 0.1 | – | –
CC(=O)CCCCn1c(=O)c2c(ncn2C)n(C)c1=O [PENTOXIFYLLINE] | 0.31 | 0.16 | 0.29 | –
C[C@]12C=CC(=O)C=C1CC[C@@H]1[C@@H]2[C@@H](O)C[C@@]2(C)[C@H]1CC[C@]2(O)C(=O)CO [PREDNISOLONE] | 1.83 | 1.54 | – | –
C[C@]12C=CC(=O)C=C1CC[C@@H]1[C@@H]2C(=O)C[C@@]2(C)[C@H]1CC[C@]2(O)C(=O)CO [PREDNISONE] | 1.47 | 1.21 | – | –
c1ccc2ncccc2c1 [QUINOLINE] | 1.85 | – | – | –
C[C@]12CC[C@H]3[C@@H](CCC4=CC(=O)CC[C@@]43C)[C@@H]1CC[C@@H]2O [TESTOSTERONE] | – | 2.74 | – | –
CS(=O)(=O)c1ccc([C@@H](O)[C@@H](CO)NC(=O)C(Cl)Cl)cc1 [THIAMPHENICOL] | -0.13 | -0.24 | -0.27 | –
Cc1cccc(N(C)C(=S)Oc2ccc3ccccc3c2)c1 [TOLNAFTATE] | 5.15 | 4.55 | 5.4 | –
